We go through 2 compounds from patent US9861103B2, “Combination of pethoxamid and picloram” (CHEMINOVA A/S, priority 2013, dated 2018).

The subject of the assay is Galium aparine. Briefly: Field trials in winter oilseed rape: visually estimated weed control of Galium aparine, synergy by the Colby method. It counts as in vivo. As to conditions: pethoxamid 1200 g a.i/ha, picloram 23 g a.i/ha, A + B 1200 + 23 g/ha. The text has this:
Two field trials are established in commercial fields of winter oilseed rape Brassica napus, at sites known to contain natural populations of broad-leaved weeds, including Galium aparine. Plots, with a minimum size of 18 m^2, are arranged with three replicates per treatment.
At each trial, each treatment is applied using a small plot sprayer fitted with flatfan nozzles in a spray volume of 200 l/ha at one of three treatment timings: Timing A—early post-emergence of the oilseed rape, when the crop is at cotyledon to one true leaf stage (BBCH10/11) and pre-emergence of G. aparine; Timing B—when the crop has two true leaves (BBCH 12) of the crop and at emergence of G. aparine (BBCH09-10). Full application details are recorded, including weather and soil conditions, as well as growth stages and populations of crop and weed species.
Weed control is then assessed by visually estimating the control, as a percentage, relative to the ground cover and vigour of each weed species in the untreated plots. The weed control evaluation is made at 24-27 days, 40-46 days, 54-60 days and 75-81 days after treatment Timing A.
The data is then analysed using the Colby method to determine synergy.

The mark [1] stands for this setting: Timing A (crop BBCH10/11, pre-emergence of G. aparine), 24-27 days after Timing A.
[2] abbreviates: Timing A (crop BBCH10/11, pre-emergence of G. aparine), 40-46 days after Timing A.
The mark [3] stands for this setting: Timing A (crop BBCH10/11, pre-emergence of G. aparine), 54-60 days after Timing A.
[4] abbreviates: Timing A (crop BBCH10/11, pre-emergence of G. aparine), 75-81 days after Timing A.
Setting [5] is: Timing B (crop BBCH 12, at emergence of G. aparine BBCH09-10), 24-27 days.
Setting [6] is: Timing B (crop BBCH 12, at emergence of G. aparine BBCH09-10), 40-46 days.
Setting [7] is: Timing B (crop BBCH 12, at emergence of G. aparine BBCH09-10), 75-81 days.

In the case of `CCOCCN(C(=O)CCl)C(=C(C)C)c1ccccc1` [pethoxamid], the “Weed control (visual estimate relative to untreated plots)” value by setting is: under setting [1], 56.67%; under setting [2], 20%; under setting [3], 43.33%; under setting [4], 23.33%; under setting [5], 20%; under setting [6], 6.67%. Further, under setting [7], the “Weed control (visual estimate relative to untreated plots)” value is 50%.
On to `Nc1c(Cl)c(Cl)nc(C(=O)O)c1Cl` [picloram], for which the “Weed control (visual estimate relative to untreated plots)” value is given as 0% under setting [1]; 0% under setting [2]; 30% under setting [3]; 30% under setting [4]; 10% under setting [5]; 6.67% under setting [6]. Moreover, the “Weed control (visual estimate relative to untreated plots)” value under setting [7] was 43.33%.
